Reference: PMC4856737 (Bioorganic & medicinal chemistry letters, 2016)

What was measured:
[1] = system: M. Tb. H37Rv (ATCC 27294); assay: M. Tb. H37Rv dose-response assay; assay type: cell-based; details: Mycobacterium tuberculosis, ATCC27294|H37RV
in vitro = details: mouse, % of cellular viability, High conc
M. Tb. H37Rv = assay: Minimum bactericidal concentration; assay type: cell-based, Mycobacterium tuberculosis

Cc1c(C(=O)/C=C/c2ccccc2)[n+]([O-])c2cc(Cl)ccc2[n+]1[O-] [Compound 3]
IC50 [1]: 0.5 to 1.5 µM

O=C(c1ccco1)c1c(C(F)(F)F)[n+]([O-])c2cc(Cl)c(N3CCOCC3)cc2[n+]1[O-] [Compound 16]
IC50 [1]: 0.5 to 1.5 µM
viability (in vitro): 26%
MBC (M. Tb. H37Rv; NA: colony counts above the established rejection value ≥ 40, TNTC: too numerous to count): TNTC

COC(=O)c1c(C(F)(F)F)[n+]([O-])c2ccc(N3CCN(c4ccc(F)cc4)CC3)cc2[n+]1[O-] [Compound 21]
bactericidal classification (M. Tb. H37Rv; ratio MBC/MIC ≤ 4): bactericidal

CC(=O)c1c(C(F)(F)F)nc2cc(F)c(N3CCSCC3)cc2[n+]1[O-] [Compound 24]
IC50 [1]: 0.5 to 1.5 µM
